This note sets out measurements from patent publication US7977366B2, “Treating an inflammatory disorder or inhibiting respiratory burst in adherent neutrophils with chemical inhibitors of neutrophil activation” (Cornell Research Foundation, Inc., priority 2003, dated 2011).

Molecules are shown by their SMILES. “Also recorded” adds a separate entry of the source. Where two headings read alike, the source gives them in different places.

One may read the IC50 as the concentration at which inhibition is half-maximal.

Assay [1] relates to human neutrophils. Briefly: TNF-triggered H2O2 release (respiratory burst) by adherent human neutrophils. It counts as cell-based. To be noted: for IC50: Homo sapiens, Neutrophil, TNF 100 ng/ml; for Concentration that consistently yielded over 95% inhibition on TNF triggered RB: empirically decided for each compound. The procedure: Contaminating erythrocytes were lysed by hypotonic shock for 45 seconds with 0.2% saline.
Briefly, 15,000 compounds were screened to identify specific inhibitors of TNF-triggered H2O2 release in human neutrophils. H2O2 release was measured as above except a few modifications to adapt to high throughput screening. […] Percent inhibition by each compound was calculated using the formula: […]
Briefly, 96-well flat-bottomed plates (Primaria, Falcon) were coated with 50 μl/well of FBS in 5% CO2 at 37° C. for at least 1 h and washed three times with 0.9% saline. Neutrophils (1.5×10^4) were added to triplicate wells containing 100 μl of reaction mixture (2.4 nm scopoletin, 0.5 μg horseradish peroxidase (HRP), and 1 mM NaN3) and stimulated with either buffer control, TNF (PreproTech, London, UK) or phorbol myristate acetate (PMA), each at 100 ng/ml. […] The supernatant from the H2O2 release assay with 1.5×10^4 neutrophils was used to measure degranulation using lactoferrin (LF) or myeloperoxidase (MPO) ELISA kit (Oxis International, Inc., Portland, Oreg.). Spontaneous cell death from the same supernatant was measured using Cytotoxicity Detection Kit (Roche Molecular Biochemicals, Nutley, N.J.). The total cell content of LF, MPO, and lactate dehydrogenase (LDH) was determined after lysing cells with 1% Triton X100. LDH is a cytosolic enzyme whose release indicates cell lysis, such that high release of LF or MPO in the face of low release of LDH is taken as a measure of degranulation.

The test system of assay [2] is human neutrophils. In words: TNF triggered degranulation of neutrophils (lactoferrin and myeloperoxidase release, ELISA). In kind it is cell-based. The conditions noted are these: for myeloperoxidase (MPO) release triggered by TNF: marker of azurophil granule; for lactoferrin (LF) release triggered by TNF: marker of specific granule. The procedure: Respiratory burst was measured as described elsewhere (De la Harpe et al., “A Semi-Automated Micro-Assay for H2O2 Release by Human Blood Monocytes and Mouse Peritoneal Macrophages,” J Immunol Methods 78:323-336 (1985), which is hereby incorporated by reference in its entirety). Briefly, 96-well flat-bottomed plates (Primaria, Falcon) were coated with 50 μl/well of FBS in 5% CO2 at 37° C. for at least 1 h and washed three times with 0.9% saline. Neutrophils (1.5×10^4) were added to triplicate wells containing 100 μl of reaction mixture (2.4 nm scopoletin, 0.5 μg horseradish peroxidase (HRP), and 1 mM NaN3) and stimulated with either buffer control, TNF (PreproTech, London, UK) or phorbol myristate acetate (PMA), each at 100 ng/ml. The reduction of scopoletin by H2O2 was recorded every 15 min on a plate-reading fluorometer until H2O2 release reached plateau and the amount of H2O2 released calculated as described (De la Harpe et al., “A Semi-Automated Micro-Assay for H2O2 Release by Human Blood Monocytes and Mouse Peritoneal Macrophages,” J Immunol Methods 78:323-336 (1985), which is hereby incorporated by reference in its entirety). The supernatant from the H2O2 release assay with 1.5×10^4 neutrophils was used to measure degranulation using lactoferrin (LF) or myeloperoxidase (MPO) ELISA kit (Oxis International, Inc., Portland, Oreg.). Spontaneous cell death from the same supernatant was measured using Cytotoxicity Detection Kit (Roche Molecular Biochemicals, Nutley, N.J.). The total cell content of LF, MPO, and lactate dehydrogenase (LDH) was determined after lysing cells with 1% Triton X100. LDH is a cytosolic enzyme whose release indicates cell lysis, such that high release of LF or MPO in the face of low release of LDH is taken as a measure of degranulation.
To test whether any of these compounds has any role in degranulation, the release of lactoferrin (LF) (as a marker of specific granule) and myeloperoxidase (MPO, as a marker of azurophil granule) were measured in the supernatant. […] The effect of Comp I on LF release was inconclusive due to high background release of LF in non-stimulated cells.
(In general: An ELISA detects its analyte on a solid surface through an enzyme-linked reagent.)

Assay [3] concerns Pyk2. Briefly: TNF-induced phosphorylation of Pyk2 Y402 in neutrophils (western blot). In kind it is cell-based, human. The procedure: Tissue culture plates (Primaria, Falcon) were coated with 3 ml of FBS in 5% CO2 at 37° C. for at least 1 h and washed twice with 0.9% saline. Isolated human neutrophils (1.5×10^6) were added to each plate containing 4 ml of reaction mixture, incubated with each compound at 37° C. for 30 min, and stimulated with either buffer control or TNF (100 ng/ml). When cells were fully spread (20-40 min), they were treated with 5 mM diisopropylfluorophosphate to inhibit serine proteases and lysed with either 125 μl of SDS lysis buffer (10 mM Tris-HCl, pH 7.6, 150 mM NaCl, 1% SDS, 1 mM PMSF, 1 mM Na pyrophosphate, 1 mM NaF, 1 mM vanadate, 5 μg/ml each of aprotinin, leupeptin, chymostatin, pepstatin A) for western blot, or with 200 μl of non-denaturing modified RIPA buffer (10 mM Tris-HCl, pH 7.6, 150 mM NaCl, 1% Triton-X100, 1 mM PMSF, 1 mM Na pyrophosphate, 1 mM NaF, 1 mM vanadate, 5 μg/ml each of aprotinin, leupeptin, chymostatin, pepstatin A) for immunoprecipitation. The cell lysate was passed through a 26-gauge needle six times to shear DNA and centrifuged at 20,000×g for 15 min to remove cell debris and DNA. The protein concentration was determined using a Bio-Rad (Indianapolis, Ind.) kit. […] After further washing with TBST, bound antibody was detected by enhanced chemiluminescence (Pierce ECL, Amersham Pharmacia, Piscataway, N.J.). […]
A general note: A western blot detects proteins with antibodies after separation by electrophoresis.

Assay [4] concerns human neutrophils. In words: Killing of bacteria by neutrophils. In kind it is cell-based.
[5] abbreviates: 1.5 h, H2O2 release at 90 min, read-out: IC50, TNF triggered H2O2 release.

As for `Cc1nc(N/N=C/c2ccccc2O)c2c3c(sc2n1)CCCC3` [Comp I, 2-[(2-Methyl-5,6,7,8-tetrahydro-benzo[4,5]thieno [2,3-a]pyrimidin-4-yl)-hydrazonomethyl]-phenol], the IC50 in assay [1] (setting [5]) was around 180 nM. In addition, the “Concentration that consistently yielded over 95% inhibition on TNF triggered RB” value in assay [1] stood at 2 µM. Also, in assay [2], the “myeloperoxidase (MPO) release triggered by TNF” value (“myeloperoxidase” below) was “almost complete inhibition” and the “lactoferrin (LF) release triggered by TNF” value (“lactoferrin” for short) is “inconclusive”.
As for `C(=N\Nc1ncnc2sc3c(c12)CCCC3)/c1cccnc1` [Comp III, N-Pyridin-3-ylmethylene-N-(5,6,7,8-tetrahydro-benzo[4,5] [2,3-a]pyrimidin-4-yl)-hydrazine], in assay [1] (setting [5]), the IC50 was 2500 ± 1500 nM. The “Concentration that consistently yielded over 95% inhibition on TNF triggered RB” value in assay [1] was determined as 5 µM. Further, in assay [2], the “myeloperoxidase” value is “almost complete inhibition” and the “lactoferrin” value is recorded as “partially inhibited”.
With `O=C(CSc1nc2ccccc2s1)N/N=C/c1cc([N+](=O)[O-])ccc1O` [Comp IV, (Benzothiazol-2-ylsulfanyl)-acetic acid (2-hydroxy-5-nitro-benzylidene) -hydrazide], the IC50 in assay [1] (range given with mixed units nM and μM, read-out: IC50, TNF triggered H2O2 release (very variable)) fell in the range of 3 to 2000 nM. In assay [1], the “Concentration that consistently yielded over 95% inhibition on TNF triggered RB” value was 10 µM. Besides, in assay [2], the “myeloperoxidase” value was “almost complete inhibition” and the “lactoferrin” value is recorded as “partially inhibited”.
Turning to `O=C1CC(c2ccccc2)=NN1c1cccc(Cl)c1` [Comp II, 2-(3-Chloro-phenyl)-5-phenyl-2,4-dihydro-pyrazol-3-one], the “TNF-induced phosphorylation of Pyk2 Y402 (activation of Pyk2)” value in assay [3] is reported as “did not block”. In addition, the “bacterial killing ability of PMNs (general statement)” value in assay [4] was “sparing”. Further, in assay [1] (setting [5]), the IC50 amounted to 1600 ± 400 nM. The “Concentration that consistently yielded over 95% inhibition on TNF triggered RB” value in assay [1] was determined as 5 µM. Moreover, the “effect on TNF triggered H2O2 release (respiratory burst)” value in assay [1] (result in words) is given as “inhibited”. Besides, in assay [2], the “degranulation of neutrophils (general statement)” value is given as “takes place normally; also recorded: sparing”, the “myeloperoxidase” value is on record as “very moderate inhibition” and the “lactoferrin” value was “did not block”.
